In ChEMBL document CHEMBL1150831, “Immunosuppressive sesquiterpene alkaloids from Tripterygium wilfordii” (2001):

Columns and labels:
Assay type in all cases: functional
PBMC [1] = test: Immunosuppressive activity in human PBMC assessed as inhibition of LPS-stimulated IL2 production at 0.3 ug/mL after 18 to 24 hrs by ELISA
PBMC [2] = test: Immunosuppressive activity in human PBMC assessed as inhibition of LPS-stimulated IL4 production at 0.3 ug/mL after 18 to 24 hrs by ELISA
PBMC [3] = test: Immunosuppressive activity in human PBMC assessed as inhibition of LPS-stimulated IL1-beta production at 0.3 ug/mL after 18 to 24 hrs by ELISA
PBMC [4] = test: Immunosuppressive activity in human PBMC assessed as inhibition of LPS-stimulated IL8 production at 0.3 ug/mL after 18 to 24 hrs by ELISA
PBMC [5] = test: Immunosuppressive activity in human PBMC assessed as inhibition of LPS-stimulated TNFalpha production at 0.3 ug/mL after 18 to 24 hrs by ELISA
PBMC [6] = test: Immunosuppressive activity in human PBMC assessed as inhibition of LPS-stimulated IFN-gamma production at 0.3 ug/mL after 18 to 24 hrs by ELISA
PBMC [7] = test: Immunosuppressive activity in human PBMC assessed as inhibition of LPS-stimulated IL1-beta production at 10 ug/mL after 18 to 24 hrs by ELISA
PBMC [8] = test: Immunosuppressive activity in human PBMC assessed as inhibition of LPS-stimulated IL2 production at 10 ug/mL after 18 to 24 hrs by ELISA
PBMC [9] = test: Immunosuppressive activity in human PBMC assessed as inhibition of LPS-stimulated IL4 production at 10 ug/mL after 18 to 24 hrs by ELISA
PBMC [10] = test: Immunosuppressive activity in human PBMC assessed as inhibition of LPS-stimulated IFN-gamma production at 10 ug/mL after 18 to 24 hrs by ELISA
PBMC [11] = test: Immunosuppressive activity in human PBMC assessed as inhibition of LPS-stimulated IL8 production at 10 ug/mL after 18 to 24 hrs by ELISA
PBMC [12] = test: Immunosuppressive activity in human PBMC assessed as inhibition of LPS-stimulated TNFalpha production at 10 ug/mL after 18 to 24 hrs by ELISA

Compound | inhibition at 0.3 µg/mL (PBMC [1]) | inhibition at 0.3 µg/mL (PBMC [2]) | inhibition at 0.3 µg/mL (PBMC [3]) | inhibition at 0.3 µg/mL (PBMC [4]) | inhibition at 0.3 µg/mL (PBMC [5]) | inhibition at 0.3 µg/mL (PBMC [6]) | inhibition at 10 µg/mL (PBMC [7]) | inhibition at 10 µg/mL (PBMC [8]) | inhibition at 10 µg/mL (PBMC [9]) | inhibition at 10 µg/mL (PBMC [10]) | inhibition at 10 µg/mL (PBMC [11]) | inhibition at 10 µg/mL (PBMC [12])
C[C@]12C=CC(=O)C=C1CC[C@@H]1[C@@H]2[C@@H](O)C[C@@]2(C)[C@H]1CC[C@]2(O)C(=O)CO [PREDNISOLONE] | 65% | 76% | 68% | 15% | 52% | 75% |  |  |  |  |  | 
CC(=O)OC[C@]12[C@H](OC(C)=O)[C@H](OC(C)=O)[C@@H]3[C@@H](OC(=O)c4ccccc4)[C@@]14O[C@@]3(C)COC(=O)c1cccnc1C(C)C(C)C(=O)O[C@@H]([C@H](OC(=O)c1cccnc1)[C@@H]2OC(C)=O)[C@]4(C)O (some centres not stated) [HYPONINE D] |  |  |  |  |  |  | 7% | 45% | 66% | 13% | -15% | -9%
